Assay results reported in US20250345318A1, “COMPOUND AND USE THEREOF IN PREVENTING OR TREATING RADIATION DAMAGE” (SIMCERE PHARMACEUTICAL CO., LTD., priority 2022, published 2025).

Tests used:
C57BL/6 male mice = assay: Small intestine epithelial injury after abdominal X-ray irradiation at 3 or 6 Gy (Example 8); assay type: in vivo; conditions: for small intestine villus length: 4 days after
Experimental: CS7BL/6 male mice (24.8±1.6 g in body weight) aged 10 weeks were divided into 5 groups of 6 mice each. JAC4 (100 mg/kg) or an equal volume of vehicle (polyethylene glycol:ethanol:physiological saline=47.5:7.5:50, v/v/v) was orally administered to the mice once daily for 7 consecutive days. After that, the mice were subjected to abdominal X-ray irradiation at different doses (3 or 6 Gy) and JAC4 or vehicle treatment was continued. After 4 days, the small intestine tissues were collected for HE staining and inspection, the small intestine villus length and the ileum crypt height in all groups were measured and statistically analyzed, and the small intestine was histopathologically scored. The specific procedures are as follows: 3 mice were randomly selected from each group for statistical analysis of their small intestine tissue HE staining images, and for each mouse, 6 fields of view were randomly selected for inspection (*** p<0.001).

lung tissue = assay: JWA, γ-H2AX, p-p65 in lung tissue of xenograft mice (immunofluorescence, immunoblot) (Example 21); assay type: in vivo
Text: In order to verify the protection effect of JAC4 against X-ray-induced DNA damage in lung tissues, 3 mice were randomly selected from each group to provide the lung tissue for immunofluorescence staining, and proteins were extracted from the lung tissues of the other 3 mice for western immunoblot to detect the expression levels of JWA, γ-H2AX, and p-p65, thereby verifying the relation between the targets of JAC4 and the reduction of DNA damage and apoptotic damages in the lung tissues. The western blot procedures are detailed in Example 4, and the immunofluorescence staining procedures are as follows:
1. Dewaxing and hydration: Prepared paraffin sections were dewaxed in an oven at 60° C. for 2-3 h to ensure a tight attachment between the section and the slide; the sections were then dewaxed by soaking in xylene I, 30 min→xylene II, 30 min→xylene III, 30 min→absolute ethyl alcohol I, shaker, 5 min→absolute ethyl alcohol II, shaker, 5 min→95% ethyl alcohol, shaker, 5 min→85% ethyl alcohol, shaker, 5 min→75% ethyl alcohol, shaker, 5 min→PBS, shaker, 5 min×3.
2. Antigen retrieval: The washed sections were boiled in 500 mL of 1× antigen retrieval solution (20× sodium citrate buffer 25 mL, pH 6.0, diluted to 1× in 475 mL of PBS), then taken out 10 min after the solution started boiling, and cooled to room temperature.
3. Cleaning and blocking: The sections were washed with PBS for 5 min thrice on a shaker. Droplets on the sections were removed carefully without overdrying. The edges of the sections were marked with an immunofluorescent pen, and a blocking buffer (centrifuged at 12,000 g for 5 min) was dropwise added to completely cover the sections. The sections were blocked for 1 h at room temperature.
4. Cleaning and co-incubation with primary antibody: After removing the blocking buffer, the sections were washed with PBS for 5 min thrice on a shaker; the primary antibody (centrifuged at 6,000 g for 5 min) was added dropwise to cover the sections, and the sections were incubated into a humidified chamber overnight at 4° C.
5. Cleaning and co-incubation with secondary antibody: The sections were washed with PBS for 5 min thrice on a shaker before the fluorescent secondary antibody (centrifuged at 6,000 g for 5 min) was added dropwise away from light. The sections were incubated at room temperature for 1 h.
6. Cleaning, nucleus staining, and photographing: The whole procedure was performed away from light. The sections were washed with PBS for 5 min thrice on a shaker. An anti-fluorescence quenching blocker containing DAPI was added dropwise. The cover glass was mounted for sealing and slowly from one side to avoid bubbles. The sealed slices were incubated in a humidified chamber for 15 min and continuously photographed to give images under a laser confocal microscope.

SPCA-1 cells [1] = assay: CCK-8 cell viability, JAC4 with X-ray, SPCA-1 (Example 22); assay type: cell-based, human; conditions: 10 μM JAC4 24 h + 4 Gy X-ray 24 h
Experimental: SPCA-1 and BEAS-2B cells were cultured in a 90%/DMEM+10% FBS+100 μg/mL ciprofloxacin culture medium. The SPCA-1 and BEAS-2B cells were pretreated for 24 h with 10 μM JAC4 and subjected to 4 Gy X-ray treatment for 24 h and then CCK-8 detection, so as to explore the influence of JAC4 in combination with X-ray on the viability of SPCA-1 and BEAS-2B cells. The specific procedures are as follows:
1. SPCA-1 and BEAS-2B cells in the exponential growth phase were plated in a 96-well plate at 5,000 cells/well in triplicate for each group.
2. After 24 h of culture, when the cells fully adhered to the container wall and returned to normal morphology, the cells were treated with X-ray radiation of 0, 4, 8, 12, 16, or 20 Gy or JAC4 at 0, 1, 5, 10, 20, or 50 μM.
3. After 24 h of treatment, CCK-8 reagent was added at 10 μL/well, and the cells were incubated in a cell incubator for 1 h. The absorbance (OD) at 450 nm was measured.
4. Cell viability equation: cell viability (%)=[…]×100%/(ODcontrol−ODblank).

SPCA-1 cells [2] = assay: Apoptosis (Hoechst 33342) and mitochondrial membrane potential (JC-1), SPCA-1 (Example 22); assay type: cell-based, human
Experimental: Severe DSBs may cause apoptosis. SPCA-1 and BEAS-2B cells were plated and cultured for 24 h before they were treated with 10 μM JAC4 for 24 h and 4 Gy X-ray for 24 h. The cells were stained with Hoechst 33342 (see Hoechst staining for apoptosis detection in Example 13) to evaluate the effect of JAC4 in combination with radiation on apoptosis. […] The decrease in mitochondrial membrane potential (JC-1) is a marker event in the early stage of apoptosis. The mitochondrial membrane potential was measured using fluorescent probe JC-1. The red fluorescence indicates a high mitochondrial membrane potential leading to JC-1 aggregate formation, and the green fluorescence indicates the mitochondrial membrane potential depolarization. The fluorescence ratio of red to green reflects the mitochondrial membrane potential and the number of early apoptotic cells.

[3] = JAC4 100 mg/kg oral + abdominal X-ray 3 Gy
[4] = JAC4 100 mg/kg oral + abdominal X-ray 6 Gy
[5] = JAC4+X-ray group relative to X-ray group
[6] = JAC4 group relative to control group

Compound: c1ccc(CSc2nnc(C3COc4ccccc4O3)o2)nc1 (centres unmarked) [JAC4]
- ileum crypt height (C57BL/6 male mice; [3]): 62.06±3.26 μm
- small intestine histopathological score (C57BL/6 male mice; [3]): 1.50±0.55
- small intestine villus length (C57BL/6 male mice; [3]): 278.19±25.21 μm
- ileum crypt height (C57BL/6 male mice; [4]): 57.32±4.43 μm
- small intestine histopathological score (C57BL/6 male mice; [4]): 4.17±0.98
- small intestine villus length (C57BL/6 male mice; [4]): 278.25±23.79 μm
- JWA protein level in lung tissue (immunoblot) (lung tissue; [5]): 1.25 folds
- p-p65 protein level in lung tissue (immunoblot) (lung tissue; [5]): 0.61 folds
- γ-H2AX protein level in lung tissue (immunoblot) (lung tissue; [5]): 0.83 folds
- fluorescence intensities of γ-H2AX, TNF-α, and TGF-β1 in lung tissue (lung tissue; JAC4+X-ray group vs X-ray group, immunofluorescence): significantly decreased
- JWA fluorescence intensity in lung tissue (lung tissue; JAC4 and JAC4+X-ray groups vs control group, immunofluorescence): higher JWA fluorescence intensity as compared with the control group
- JWA protein level in lung tissue (immunoblot) (lung tissue; [6]): 4.23 folds
- p-p65 protein level in lung tissue (immunoblot) (lung tissue; [6]): 0.63 folds
- γ-H2AX protein level in lung tissue (immunoblot) (lung tissue; [6]): 0.91 folds
- viability of SPCA-1 cells (CCK-8) (SPCA-1 cells [1]): significantly inhibited
- apoptosis (Hoechst 33342) (SPCA-1 cells [2]; SPCA-1, 10 μM JAC4 24 h + 4 Gy X-ray 24 h): increased the pro-apoptotic effect of X-ray
- mitochondrial membrane potential (JC-1) (SPCA-1 cells [2]; SPCA-1, JAC4 in combination with X-ray): aggravated the decrease in mitochondrial membrane potential
